Source: ChEMBL document CHEMBL5335774 (Eur J Med Chem, 2023)

Columns and labels:
[1] = molecular target: T1, Replicase polyprotein 1ab (Severe acute respiratory syndrome coronavirus 2, UniProt P0DTD1)
[2] = molecular target: T1, Replicase polyprotein 1ab; remark: listed apart in the source
[3] = molecular target: Replicase polyprotein 1ab (Severe acute respiratory syndrome coronavirus 2) (UniProt P0DTD1); conditions: time 70.0 min
[4] = tested on: Vero; experiment: Cytotoxicity against green monkey Vero cells; format: toxicity, cell-based; conditions: chlorocebus sabaeus
[5] = tested on: SARS-CoV-2; experiment: microbe, parasite or virus in culture; conditions: Severe acute respiratory syndrome coronavirus 2, Vero, 16 h
[6] = molecular target: Replicase polyprotein 1a (Severe acute respiratory syndrome-related coronavirus, UniProt P0C6U8)
[7] = molecular target: T1, Replicase polyprotein 1ab; remark: listed apart in the source
[8] = molecular target: Replicase polyprotein 1ab (Severe acute respiratory syndrome coronavirus 2) (UniProt P0DTD1); conditions: dose 40.0 µM, time 30.0 min
[9] = molecular target: Procathepsin L (Homo sapiens, UniProt P07711)
Procathepsin L, sequence (P07711 whole entry): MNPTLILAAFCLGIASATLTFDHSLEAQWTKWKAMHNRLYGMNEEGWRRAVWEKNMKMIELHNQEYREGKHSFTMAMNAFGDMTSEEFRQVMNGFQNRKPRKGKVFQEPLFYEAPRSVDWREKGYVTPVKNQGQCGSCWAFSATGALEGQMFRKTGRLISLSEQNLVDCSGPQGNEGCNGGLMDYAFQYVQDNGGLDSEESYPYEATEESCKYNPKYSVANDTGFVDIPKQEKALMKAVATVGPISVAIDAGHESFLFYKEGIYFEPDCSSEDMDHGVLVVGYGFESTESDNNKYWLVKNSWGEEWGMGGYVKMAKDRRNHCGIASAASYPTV

For `CCSC(=S)NCc1cccnc1`, the IC50 ([1]; read-out: IC50) was 178 nM and the IC50 ([2]; read-out: IC50) was 22400 nM.
Compound `Cc1cccc2nc(CSC(=S)NCc3cccnc3)cn12` has an IC50 ([1]; read-out: IC50) of 21 nM, an inhibition [3] of 80% and an IC50 ([2]; read-out: IC50) of 1460 nM. For the same compound, the IC50 ([2]; read-out: pIC50 (converted)) was 1410 nM, the Activity [4] was “Non-Toxic” and the IC50 [5] was 1060 nM. For the same compound, the IC50 [6] was 383 nM, the IC50 [7] was 8 nM and the ΔTm [8] was 14.2 °C. For the same compound, the IC50 ([9]; read-out: IC50) was 122000 nM.
`S=C(NCc1cccnc1)SCc1ccccc1` was tested, and the IC50 ([1]; read-out: IC50) was 23 nM and the IC50 ([2]; read-out: IC50) was 9360 nM.
In the case of `S=C([S-])NCc1cccnc1.[K+]`, the IC50 ([1]; read-out: pIC50 (converted)) is reported as 26.9 nM, the IC50 ([2]; read-out: IC50) is reported as 1360 nM and the Activity [4] is reported as “Toxic”. For the same compound, the IC50 [6] was 165 nM and the IC50 ([9]; read-out: IC50) was 42800 nM.
With `CC(C)C[C@H](NC(=O)OCc1ccccc1)C(=O)N[C@@H](CC1CCNC1=O)C(O)S(=O)(=O)O` (some centres not stated) the IC50 ([9]; read-out: pIC50 (converted)) was 0.692 nM.
`Cc1cccc2nc(CNC(=S)NCc3cccnc3)cn12` was tested, and the IC50 ([1]; read-out: IC50) was 35000 nM, the pIC50 [2] was less than 4 and the IC50 ([2]; read-out: IC50) was greater than 100000 nM.
`S=C(NCc1cccnc1)OCc1ccccc1` showed an IC50 ([1]; read-out: IC50) greater than 100000 nM, an IC50 ([1]; read-out: pIC50 (converted)) greater than 100000 nM and a pIC50 [2] of less than 4. It also gave an IC50 ([2]; read-out: IC50) greater than 100000 nM.
